Target: T1, CDK12/cyclin K + DDB1 (Homo sapiens, UniProt Q16531+Q9NYV4, DEL396-705)
T1 construct: The kinase domain of human CDK12 (Uniprot: Q9NYV4; a.a; 715–1050); GST (N, cleaved yes); made in house; host or cells: Spodoptera frugiperda SF9 insect cells (Bac-to-Bac); CDK12/cyclin K co-infected with S. cerevisiae CAK1
Assay: Microscale thermophoresis, ternary complex formation
Assay type: binding
Settings: MST, labeled DDB1ΔBPB + CDK12/cyclin K
Method: Finally, the capacity of small molecules to induce a ternary complex between CDK12/cyclin K and DDB1 in vitro was assessed by microscale thermophoresis (MST). Labeled DDB1ΔBPB was combined with purified CDK12/cyclin K, and fluorescence intensity was monitored with increasing compound concentrations.
Cell pellets were harvested 48 hours post infection via centrifugation and lysed in buffer A (50 mM Tris–HCl (pH 8.0), 200 mM NaCl, 10 mM imidazole, 0.5 mM tris(2-carboxyethyl) phosphine (TCEP)) supplemented with EDTA-free Pierce™ protease inhibitor tablet (Thermo Fisher Scientific). […] The concentrated protein at 2 mg mL^−1 was flash-frozen in liquid nitrogen and stored at −80 °C.
Full-length S. cerevisiae CAK1 (Uniprot: P43568) with an N-terminal His6 tag was subcloned into pFastBac 1 vector. […] The eluted CDK12/cyclin K complex was concentrated to 2 mg mL^−1, flash-frozen in liquid nitrogen and stored at −80 °C.
A protocol to assess ternary binding of molecular glues with CDK12/cycK and DDB1 by MST was established using published procedures for PROTAC interaction with bromodomains and E3 ubiquitin ligases.[38] His8-DDB1-ΔBPB was labeled with the MO-L018 Monolith™ His-tag Labeling Kit RED-tris-NTA 2nd Generation (NanoTemper Technologies) following the instruction manual. 100 nM dye was mixed with 200 nM DDB1 in 50 mM HEPES pH 7.5, 150 mM NaCl, 5% glycerol, 0.05% Tween, and incubated at room temperature for 30 min. […] MST traces were recorded using standard parameters: 5 s MST power off, 30 s MST power on and 5 s MST power off. Measurements were taken at −1 to 0 s (cold region) and 9–10 s (hot region). Data were analyzed using a fitting function derived from the law of mass action:1 [drawing 6] where f(c) is the fluorescence signal (Fnorm) at a given ligand concentration (c), B is Fnorm of fully liganded DDB1 at high ligand concentrations, U is Fnorm of DDB1 alone at low ligand concentrations, Kd is the dissociation constant or binding affinity, cT is the final concentration of DDB1 in the assay (Fig. 3G). For normalization, the data were first transformed using eqn (2) where y is the fraction bound, followed by fitting to eqn (3) (Fig. 5B–E).2 [drawing 7] 3 [drawing 8]

T1 sequence (Q16531 with tags, fused parts or gaps DEL396-705): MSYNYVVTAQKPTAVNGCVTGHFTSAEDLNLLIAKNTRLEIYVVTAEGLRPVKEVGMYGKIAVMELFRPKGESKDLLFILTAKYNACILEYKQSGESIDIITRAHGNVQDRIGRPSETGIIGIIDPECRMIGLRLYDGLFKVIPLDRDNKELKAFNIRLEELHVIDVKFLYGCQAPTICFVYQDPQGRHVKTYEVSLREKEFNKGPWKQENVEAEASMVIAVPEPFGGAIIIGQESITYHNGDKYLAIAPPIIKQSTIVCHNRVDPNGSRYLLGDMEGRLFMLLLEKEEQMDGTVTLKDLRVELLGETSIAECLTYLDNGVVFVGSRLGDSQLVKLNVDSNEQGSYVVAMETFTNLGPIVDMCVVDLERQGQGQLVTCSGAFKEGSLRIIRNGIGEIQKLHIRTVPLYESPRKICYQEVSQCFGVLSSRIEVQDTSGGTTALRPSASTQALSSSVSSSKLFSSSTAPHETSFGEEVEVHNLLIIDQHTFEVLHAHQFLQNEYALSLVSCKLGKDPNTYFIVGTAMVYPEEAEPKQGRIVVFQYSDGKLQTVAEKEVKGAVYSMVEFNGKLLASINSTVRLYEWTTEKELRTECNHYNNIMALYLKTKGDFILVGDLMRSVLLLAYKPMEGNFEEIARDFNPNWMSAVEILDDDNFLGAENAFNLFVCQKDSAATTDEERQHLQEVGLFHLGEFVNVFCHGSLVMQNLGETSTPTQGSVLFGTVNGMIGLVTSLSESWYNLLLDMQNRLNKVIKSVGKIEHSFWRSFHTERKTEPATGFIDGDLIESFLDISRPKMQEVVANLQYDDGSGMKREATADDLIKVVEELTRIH
T1 sequence (Q9NYV4 715-1050, stated change not applied): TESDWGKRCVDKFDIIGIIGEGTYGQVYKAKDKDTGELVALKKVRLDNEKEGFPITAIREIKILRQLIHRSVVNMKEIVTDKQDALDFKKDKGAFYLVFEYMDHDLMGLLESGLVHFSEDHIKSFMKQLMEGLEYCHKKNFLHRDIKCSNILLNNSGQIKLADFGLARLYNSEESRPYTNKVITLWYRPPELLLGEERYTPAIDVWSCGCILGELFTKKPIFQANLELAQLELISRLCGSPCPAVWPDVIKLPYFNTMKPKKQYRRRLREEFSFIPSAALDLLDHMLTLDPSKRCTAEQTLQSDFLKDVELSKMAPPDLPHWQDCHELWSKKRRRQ
T1 sequence (O75909 11-267 partner limits assumed): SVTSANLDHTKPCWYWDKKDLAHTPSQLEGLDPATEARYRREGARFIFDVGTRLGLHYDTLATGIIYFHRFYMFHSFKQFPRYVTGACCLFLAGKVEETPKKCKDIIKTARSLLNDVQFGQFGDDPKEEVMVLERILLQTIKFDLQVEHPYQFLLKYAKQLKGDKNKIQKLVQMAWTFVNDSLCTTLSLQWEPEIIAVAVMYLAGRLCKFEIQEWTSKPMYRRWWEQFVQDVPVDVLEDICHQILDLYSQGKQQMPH

- ability to induce ternary complex: inability to induce such a complex
SMILES: CN(C)C/C=C/C(=O)Nc1ccc(C(=O)N2CCC[C@@H](Nc3ncc(Cl)c(-c4c[nH]c5ccccc45)n3)C2)cc1 [THZ531, reference compound]
